Results taken from BindingDB's records for doi:10.1016/s0960-894x(99)00632-0 (3-Dimensional Pharmaceuticals, 2000).

Assay: Compound was evaluated for the inhibitory constant against human Serine protease chymotrypsin

Ki: 88 µM
SMILES: Cc1cc(OCCC=NNC(=N)N)cc(OS(=O)(=O)c2ccccc2OC(F)(F)F)c1 [3-[((3E)-3-{[(E)-amino(imino)methyl]hydrazono}propyl)oxy]-5-methylphenyl 2-(trifluoromethoxy)benzenesulfonate]
